The record followed here is US20110071197A1, “BIS-ARYL COMPOUNDS FOR USE AS MEDICAMENTS” (priority 2008, published 2011).

For this experiment, the target named is T1, Recombinant human LTC4 synthase (Homo sapiens, UniProt Q16873).
T1 construct: made in house; host or cells: Pichia pastoris
T1 sequence (Q16873 1-150): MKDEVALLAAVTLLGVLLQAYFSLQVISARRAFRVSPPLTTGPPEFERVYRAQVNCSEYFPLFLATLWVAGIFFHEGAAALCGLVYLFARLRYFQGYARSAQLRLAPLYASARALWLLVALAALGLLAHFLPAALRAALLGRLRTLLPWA
The experiment is described as follows: LTC4 synthase in vitro assay (HTRF detection of LTC4). Format: biochemical. The following applies: HTRF method. The method, then: Alternatively HTRF detection of LTC4 can be used:
In the assay, LTC4 synthase catalyses the reaction where the substrate LTA4 is converted to LTC4. Recombinant human LTC4 synthase is expressed in Piccia pastoralis and the purified enzyme is dissolved in 25 mM Tris-buffer pH 7.8 supplemented with 0.1 mM glutathione (GSH) and stored at −80° C. The assay is performed in phosphate buffered saline (PBS) pH 7.4 and 5 mM GSH in 384-well plates.
The following is added chronologically to each well: • 1. 48 μl LTC4 synthase in PBS with 5 mM GSH. The total protein concentration in this solution is 0.5 μg/ml. • 2. […] Incubation of the plate at room temperature for 10 minutes. • 4. 1 μl LTA4 (final conc. 2.5 μM). • 5. Incubation of the plate at room temperature for 5 minutes. • 6. 10 μl of the incubation mixture is analysed using homogeneous time resolved fluorescent (HTRF) detection.

[1] abbreviates: total concentration of title compound in the assay 10 μM.

With “2-(2,3-dichlorobenzylamino)-5-{4-[(4-methoxybenzene-sulfonyl)methyl-amino]-phenoxy}benzoic acid [Example 11:12]”, the “% inh.” value under setting [1] stood at 92%. Still for that read-out and setting: under “2-[(2-Chloro-pyridine-3-carbonyl)-amino]-5-{4-[(4-methoxy-benzene-sulfonyl)methylamino]-phenoxy}benzoic acid [11:20]” stands 76%; under “5-{4-[(4-methoxybenzene-sulfonyl)methylamino]-phenoxy}-2-(4-trifluoromethyl-benzoylamino)benzoic acid [11:3]”, 98%. As to `O=C(O)c1cc(Oc2ccc(Nc3cc(C(F)(F)F)ccc3Cl)c(C(=O)O)c2)ccc1Nc1ccc(F)c(F)c1` [1:1, 5-(3-carboxy-4-(2-chloro-5-trifluoromethylphenylamino)-phenyloxy)-2-(3,4-difluoro-phenylamino)benzoic acid], the inhibition at 10 µM under setting [1] is 98%. On to `O=C(O)c1cc(Oc2ccc(Nc3ccc(F)c(F)c3)c(C(=O)O)c2)ccc1Nc1ccc(F)c(F)c1` [1:3, 3,3′-oxybis[6-(3,4-difluorophenyl-amino)benzoic acid]], for which the inhibition at 10 µM under setting [1] amounted to 100%. Consider `O=C(O)c1cc(Oc2ccc(Nc3ccc4occc4c3)c(C(=O)O)c2)ccc1Nc1ccc(F)c(F)c1` [1:4, 5-[3-carboxy-4-(3,4-difluoro-phenylamino)phenyloxy]-2-(benzofuran-5-ylamino)benzoic acid], for which, under setting [1], the inhibition at 10 µM stood at 100%.

As to `O=C(O)c1cc(Oc2ccc(Nc3ccc(F)c(F)c3)c(C(=O)O)c2)ccc1Nc1ccc(C(F)(F)F)nc1` [1:5, 5-[3-carboxy-4-(3,4-difluoro-phenylamino)phenyloxy]-2-(6-trifluoromethylpyridin-3-yl-amino)-benzoic acid], the inhibition at 10 µM under setting [1] turned out to be 99%. Still for that read-out and setting: under `O=C(O)c1cc(Oc2ccc(Nc3ccc([N+](=O)[O-])cc3)c(C(=O)O)c2)ccc1Nc1ccc(F)cc1` [1:6, 5-[3-carboxy-4-(4-nitrophenyl-amino)phenyloxy]-2-(4-fluoro-phenylamino)benzene-carboxylic acid] stands 100%. In the case of `O=C(O)c1cc(Oc2ccc(Nc3ccc(C(=O)C4CC4)cc3)c(C(=O)O)c2)ccc1Nc1ccc(F)cc1` [1:7, 5-[3-carboxy-4-(4-cyclopropane-carbonylphenylamino)phenyloxy]-2-(4-fluorophenylamino)benzene-carboxylic acid], the inhibition at 3 µM (compound concentration 3 μM) worked out at 97%. Regarding `O=C(Nc1ccc(Oc2ccc(NC(=O)c3ccc(Cl)c(Cl)c3)c(C(=O)O)c2)cc1C(=O)O)c1ccc(F)c(F)c1` [1:8, 5-[3-carboxy-4-(3,4-difluorobenz-amido)phenyloxy]-2-(3,4-dichloro-benzamido)benzoic acid], the “% inh.” value (compound concentration 3 μM) is 99 (3 μM) %. Regarding `O=C(Nc1ccc(Oc2ccc(NC(=O)c3cccc(Cl)c3)c(C(=O)O)c2)cc1C(=O)O)c1ccc(SC(F)(F)F)cc1` [2:1, 5-[3-carboxy-4-(4-(trifluoromethylthio)-benzamido)-phenyloxy]-2-(3-chlorobenz-amido)benzoic acid], the “% inh.” value under setting [1] came out at 98%. On the same count and under the same terms, then `O=C(Nc1ccc(Oc2ccc(NC(=O)c3cc(Cl)ccc3F)c(C(=O)O)c2)cc1C(=O)O)c1cccc(Cl)c1` [2:2, 5-[3-carboxy-4-(3-chloro-6-fluorobenz-amido)phenyloxy]-2-(3-chlorobenz-amido)benzoic acid], with 100%.

On to `O=C(Nc1ccc(Oc2ccc(NC(=O)c3cccc(Cl)c3)c(C(=O)O)c2)cc1C(=O)O)c1ccc([N+](=O)[O-])cc1` [2:3, 5-[3-carboxy-4-(4-nitrobenzamido)-phenyloxy]-2-(3-chlorobenzamido)benzoic acid], for which the inhibition at 10 µM under setting [1] came out at 100%. Regarding `O=C(Nc1ccc(Oc2ccc(NC(=O)c3cc([N+](=O)[O-])ccc3Cl)c(C(=O)O)c2)cc1C(=O)O)c1cccc(Cl)c1` [2:4, 5-[3-carboxy-4-(3-nitro-6-chlorobenz-amido)-phenyloxy]-2-(3-chlorobenz-amido)benzoic acid], under setting [1], the “% inh.” value is listed as 99%. Still for that read-out and setting: then `CCCCc1ccc(C(=O)Nc2ccc(Oc3ccc(NC(=O)c4ccc(Cl)cc4Cl)c(C(=O)O)c3)cc2C(=O)O)cc1` [2:5, 5-[3-carboxy-4-(4-chloro-6-chloro-benzamido)-phenyloxy]-2-(4-butylbenz-amido)benzoic acid], with 100%.

For `CCCCc1ccc(C(=O)Nc2ccc(Oc3ccc(NC(=O)c4cc(Cl)cc(Cl)c4)c(C(=O)O)c3)cc2C(=O)O)cc1` [2:6, 5-[3-carboxy-4-(3-chloro-5-chloro-benzamido)-phenyloxy]-2-(4-butylbenz-amido)benzoic acid], the “% inh.” value under setting [1] turned out to be 100%. In the case of `CCCCc1ccc(C(=O)Nc2ccc(Oc3ccc(NC(=O)c4ccc(F)c(Cl)c4)c(C(=O)O)c3)cc2C(=O)O)cc1` [2:7, 5-[3-carboxy-4-(3-chloro-4-fluorobenz-amido)-phenyloxy]-2-(4-butylbenz-amido)benzoic acid], the “% inh.” value under setting [1] is 100%.

`CCCCc1ccc(C(=O)Nc2ccc(Oc3ccc(NC(=O)c4ccc(F)cc4Cl)c(C(=O)O)c3)cc2C(=O)O)cc1` [2:8, 5-[3-carboxy-4-(2-chloro-4-fluorobenz-amido)-phenyloxy]-2-(4-butylbenz-amido)benzoic acid]: the “% inh.” value under setting [1] was determined as 100%. For the compound `N#Cc1ccc(C(=O)Nc2ccc(Oc3ccc(NC(=O)c4cccc(Cl)c4)c(C(=O)O)c3)cc2C(=O)O)cc1` [2:9, 5-[3-carboxy-4-(4-cyanobenzamido)-phenyloxy]-2-(3-chlorobenzamido)benzoic acid], the inhibition at 10 µM under setting [1] stood at 99%.

For `O=C(Nc1ccc(Oc2ccc([N+](=O)[O-])c(C(=O)O)c2)cc1C(=O)O)c1ccccc1` [3:1, 2-benzamido-5-(3-carboxy-4-nitrophenoxy)benzoic acid], the inhibition at 10 µM under setting [1] is 65%. Take `O=C(Nc1ccc(Oc2ccc([N+](=O)[O-])c(C(=O)O)c2)cc1C(=O)O)c1ccc(C(F)(F)F)cc1` [3:2, 2-nitro-5-[4-(4-trifluoromethyl-benzoylamino)-3-carboxy-phenoxy]benzoic acid]: the inhibition at 10 µM under setting [1] is 86%. For `CCCCc1ccc(C(=O)Nc2ccc(Oc3ccc(NC(=O)c4ccc(CCCC)cc4)c(C(=O)O)c3)cc2C(=O)O)cc1` [4:1, 5-[3-carboxy-4-(4-butyl-benzamido)phenyloxy]-2-(4-butylbenzamido)benzoic acid], under setting [1], the inhibition at 10 µM amounted to 99%.

Regarding `O=C(Nc1ccc(Oc2ccc(NC(=O)c3ccccc3)c(C(=O)O)c2)cc1C(=O)O)c1ccccc1` [4:2, 5-[3-carboxy-4-benzamido-phenyloxy]-2-benzamidobenzoic acid], the inhibition at 10 µM under setting [1] was 93%. In the case of `O=C(Nc1ccc(Oc2ccc(NC(=O)c3ccc([N+](=O)[O-])cc3)c(C(=O)O)c2)cc1C(=O)O)c1ccc([N+](=O)[O-])cc1` [4:3, 5-[3-carboxy-4-(4-nitrobenzamido)phenyloxy]-2-(4-nitrobenzamido)benzoic acid], under setting [1], the inhibition at 10 µM came to 97%. On the same count and under the same terms, then `O=C(Nc1ccc(Oc2ccc(NC(=O)c3cccc(Cl)c3)c(C(=O)O)c2)cc1C(=O)O)c1cccc(Cl)c1` [4:4, 5-[3-carboxy-4-(3-chlorobenzamido)phenyloxy]-2-(3-chlorobenzamido)benzoic acid], with 99%; and `CCCCc1ccc(C(=O)Nc2ccc(Oc3ccc(NC(=O)c4ccccc4)c(C(=O)O)c3)cc2C(=O)O)cc1` [5:1, 5-[3-carboxy-4-(4-butylbenzamido)-phenyloxy]-2-benzamidobenzoic acid], with 100%. On to `O=C(Nc1ccc(Oc2ccc(NC(=O)c3ccc([N+](=O)[O-])cc3)c(C(=O)O)c2)cc1C(=O)O)c1ccccc1` [5:2, 5-[3-carboxy-4-(4-nitrobenzamido)-phenyloxy]-2-benzamidobenzoic acid], for which, under setting [1], the inhibition at 10 µM was 99%. Take `O=C(Nc1ccc(Oc2ccc(NC(=O)c3cccc(Cl)c3)c(C(=O)O)c2)cc1C(=O)O)c1ccccc1` [5:3, 5-[3-carboxy-4-(3-chlorobenzamido)-phenyloxy]-2-benzamidobenzoic acid]: the inhibition at 10 µM under setting [1] stood at 100%. As to `CCCCc1ccc(C(=O)Nc2ccc(Oc3ccc(NC(=O)c4ccc(Cl)cc4Cl)c(CC(=O)O)c3)cc2C(=O)O)cc1` [6:1, 2-(4-butyl-benzoyl-amino)-5-[3-carboxy-methyl-4-(2,4-dichloro-benzoylamino)phenoxy]-benzoic acid], under setting [1], the “% inh.” value is 99%. In the case of `O=C(O)Cc1cc(Oc2ccc(NC(=O)c3ccc(C(F)(F)F)cc3F)c(C(=O)O)c2)ccc1NC(=O)c1cc(Cl)ccc1O` [6:2, 5-[3-carboxymethyl-4-(5-chloro-2-hydroxybenzoylamino)-phenoxy]-2-(2-fluoro-4-trifluoromethyl-benzoylamino)benzoic acid], the inhibition at 10 µM under setting [1] is 98%.

On to `CC(C)Oc1ccc(C(=O)Nc2ccc(Oc3ccc(NC(=O)c4cc(Cl)ccc4O)c(CC(=O)O)c3)cc2C(=O)O)cc1` [6:3, 5-[3-carboxymethyl-4-(5-chloro-2-hydroxybenzoylamino)phenoxy]-2-(4-isopropoxybenzoyl-amino)benzoic acid], for which, under setting [1], the inhibition at 10 µM was found to be 100%. `O=C(O)Cc1cc(Oc2ccc(NC(=O)c3ccc(C(F)(F)F)cc3F)c(C(=O)O)c2)ccc1NC(=O)c1cccc(Cl)c1` [6:4, 5-[3-carboxymethyl-4-(3-chloro-benzoylamino)-phenoxy]-2-(2-fluoro-4-trifluoromethylbenzoyl-amino)benzoic acid]: under setting [1], the inhibition at 10 µM came to 96%.

For orientation: inhibition means how much of the control response was suppressed.
